Earlier results as cited in patent US12246026B2, “Ganaxolone for use in treatment of status epilepticus” (Marinus Pharmaceuticals, Inc., priority 2019, dated 2025).

Test system: patients with super refractory SE
Conditions: randomized, double-blind, placebo-controlled Phase 3 trial; cited from earlier work

For `CC(=O)[C@H]1CC[C@H]2[C@@H]3CC[C@H]4C[C@H](O)CC[C@]4(C)[C@H]3CC[C@]12C` [brexanolone], which efficacy over placebo is on record?
The efficacy over placebo was “failed to show efficacy over placebo”.
